# From patent US20260144788A1, “COMPOUND FOR SHP2 PROTEIN DEGRADATION AND MEDICAL USES THEREOF” (UBIX THERAPEUTICS, INC., priority 2022, published 2026)
# Molecular target: T1, SHP2 protein (Homo sapiens, UniProt Q06124)
# T1 sequence (Q06124 1-593): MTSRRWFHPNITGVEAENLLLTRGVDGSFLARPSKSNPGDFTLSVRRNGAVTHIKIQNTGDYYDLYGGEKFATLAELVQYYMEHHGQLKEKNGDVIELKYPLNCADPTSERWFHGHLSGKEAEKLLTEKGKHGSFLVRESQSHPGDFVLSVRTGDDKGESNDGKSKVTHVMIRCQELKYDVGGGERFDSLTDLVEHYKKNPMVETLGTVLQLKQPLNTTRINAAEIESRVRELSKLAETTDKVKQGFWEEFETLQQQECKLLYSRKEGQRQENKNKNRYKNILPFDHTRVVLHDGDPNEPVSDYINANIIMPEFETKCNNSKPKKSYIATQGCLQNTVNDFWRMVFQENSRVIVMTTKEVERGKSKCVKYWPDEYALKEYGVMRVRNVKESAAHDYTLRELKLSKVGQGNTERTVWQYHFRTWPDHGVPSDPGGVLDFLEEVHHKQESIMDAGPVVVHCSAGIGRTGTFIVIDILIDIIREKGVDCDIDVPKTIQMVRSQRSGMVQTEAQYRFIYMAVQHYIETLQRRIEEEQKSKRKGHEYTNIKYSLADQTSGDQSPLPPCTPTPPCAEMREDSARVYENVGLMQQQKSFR
# Assay: Measurement of SHP2 protein degradation in MV-4-11 cells (western blotting)
# Format: cell-based
# Set-up: endogenous in cells
# Settings: harvested after 24 hours
# Method in brief: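 MV-4-11 cells in IMDM/5% FBS were exposed to compound at final 0.01, 0.1, 1 μM or 0.001, 0.01, 0.1 μM for 24 h, DMSO as negative control. BCA-normalised lysates were immunoblotted for SHP2 with GAPDH as loading control, read on LI-COR Odyssey.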
Compound,SHP2% degradation (0.01 μM) [%],SHP2% degradation (0.1 μM) [%]
"Cc1ncsc1-c1ccc(CNC(=O)[C@@H]2C[C@@H](O)CN2C(=O)[C@@H](NC(=O)C2(F)CC2)C(C)(C)C)c(OC2CCN(CC3CCN(c4nccc(Sc5cnc(N6CCC(C)(CN)CC6)cn5)c4Cl)CC3)CC2)c1 [Example 9, (2S,4R)—N-(2-((1-((1-(4-((5-(4-(aminomethyl)-4-methylpiperidin-1-yl)pyrazin-2-yl)thio)-3-chloropyridin-2-yl)piperidin-4-yl)methyl)piperidin-4-yl)oxy)-4-(4-methylthiazol-5-yl)benzyl)-1-((S)-2-(1-fluorocyclopropane-1-carboxamido)-3,3-dimethylbutanoyl)-4-hydroxypyrrolidine-2-carboxamide]",4.0,81.1
"Cc1ncsc1-c1ccc(CNC(=O)[C@@H]2C[C@@H](O)CN2C(=O)[C@@H](NC(=O)C2(F)CC2)C(C)(C)C)c(OCCN2CCN(CCNc3cccc(Sc4cnc(N5CCC(C)(CN)CC5)cn4)c3Cl)CC2)c1 [Example 2, (2S,4R)—N-(2-(2-(4-(2-((3-((5-(4-(aminomethyl)-4-methylpiperidin-1-yl)pyrazin-2-yl)thio)-2-chlorophenyl)amino)ethyl)piperazin-1-yl)ethoxy)-4-(4-methylthiazol-5-yl)benzyl)-1-((S)-2-(1-fluorocyclopropane-1-carboxamido)-3,3-dimethylbutanoyl)-4-hydroxypyrrolidine-2-carboxamide]",11.8,80.3
"Cc1ncsc1-c1ccc(CNC(=O)[C@@H]2C[C@@H](O)CN2C(=O)[C@@H](NC(=O)C2(F)CC2)C(C)(C)C)c(O[C@H]2CC[C@H](C(=O)N3CC(Nc4nccc(Sc5cnc(N6CCC(C)(N)CC6)cn5)c4Cl)C3)CC2)c1 [Example 21, (2S,4R)—N-(2-(((1R,4S)-4-(3-((4-((5-(4-amino-4-methylpiperidin-1-yl)pyrazin-2-yl)thio)-3-chloropyridin-2-yl)amino)azetidine-1-carbonyl)cyclohexyl)oxy)-4-(4-methylthiazol-5-yl)benzyl)-1-((S)-2-(1-fluorocyclopropane-1-carboxamido)-3,3-dimethylbutanoyl)-4-hydroxypyrrolidine-2-carboxamide]",81.1,99.7
"Cc1ncsc1-c1ccc(CNC(=O)[C@@H]2C[C@@H](O)CN2C(=O)[C@@H](NC(=O)C2(F)CC2)C(C)(C)C)c(O[C@H]2CC[C@H](C(=O)N3CC(Nc4cccc(Sc5cnc(N6CCC(C)(CN)CC6)cn5)c4Cl)C3)CC2)c1 [Example 11, (2S,4R)—N-(2-(((1R,4S)-4-(3-((3-((5-(4-(aminomethyl)-4-methylpiperidin-1-yl)pyrazin-2-yl)thio)-2-chlorophenyl)amino)azetidine-1-carbonyl)cyclohexyl)oxy)-4-(4-methylthiazol-5-yl)benzyl)-1-((S)-2-(1-fluorocyclopropane-1-carboxamido)-3,3-dimethylbutanoyl)-4-hydroxypyrrolidine-2-carboxamide]",83,97.9
"Cc1ncsc1-c1ccc(CNC(=O)[C@@H]2C[C@@H](O)CN2C(=O)[C@@H](NC(=O)C2(F)CC2)C(C)(C)C)c(O[C@H]2CC[C@H](CN3CC(Nc4cccc(Sc5cnc(N6CCC(C)(CN)CC6)cn5)c4Cl)C3)CC2)c1 [Example 5, (2S,4R)—N-(2-(((1R,4S)-4-((3-((3-((5-(4-(aminomethyl)-4-methylpiperidin-1-yl)pyrazin-2-yl)thio)-2-chlorophenyl)amino)azetidin-1-yl)methyl)cyclohexyl)oxy)-4-(4-methylthiazol-5-yl)benzyl)-1-((S)-2-(1-fluorocyclopropane-1-carboxamido)-3,3-dimethylbutanoyl)-4-hydroxypyrrolidine-2-carboxamide]",22.3,62.0
"Cc1ncsc1-c1ccc(CNC(=O)[C@@H]2C[C@@H](O)CN2C(=O)[C@@H](NC(=O)C2(F)CC2)C(C)(C)C)c(OCCCCCCN2CCC(CNc3cccc(Sc4cnc(N5CCC(C)(CN)CC5)cn4)c3Cl)CC2)c1 [Example 1, (2S,4R)—N-(2-((6-(4-(((3-((5-(4-(aminomethyl)-4-methylpiperidin-1-yl)pyrazin-2-yl)thio)-2-chlorophenyl)amino)methyl)piperidin-1-yl)hexyl)oxy)-4-(4-methylthiazol-5-yl)benzyl)-1-((S)-2-(1-fluorocyclopropane-1-carboxamido)-3,3-dimethylbutanoyl)-4-hydroxypyrrolidine-2-carboxamide]",−33.4,6.5
"Cc1ncsc1-c1ccc(CNC(=O)[C@@H]2C[C@@H](O)CN2C(=O)[C@@H](NC(=O)C2(F)CC2)C(C)(C)C)c(O[C@H]2CC[C@H](C(=O)N3CCC(Nc4cccc(Sc5cnc(N6CCC(C)(CN)CC6)cn5)c4Cl)CC3)CC2)c1 [Example 17, (2S,4R)—N-(2-(((1R,4S)-4-(4-((3-((5-(4-(aminomethyl)-4-methylpiperidin-1-yl)pyrazin-2-yl)thio)-2-chlorophenyl)amino)piperidine-1-carbonyl)cyclohexyl)oxy)-4-(4-methylthiazol-5-yl)benzyl)-1-((S)-2-(1-fluorocyclopropane-1-carboxamido)-3,3-dimethylbutanoyl)-4-hydroxypyrrolidine-2-carboxamide]",64.4,96.6

# More lines, now with the values ahead:
SHP2% degradation (0.01 μM) [%],SHP2% degradation (0.1 μM) [%],Compound
97.0,99.8,"CC(=O)N[C@H](C(=O)N1C[C@H](O)C[C@H]1C(=O)NCc1ccc(-c2scnc2C)cc1OC1CCN(C(=O)[C@H]2C[C@@H](Nc3nccc(Sc4cnc(N5CCC(C)(CN)CC5)cn4)c3Cl)C2)CC1)C(C)(C)C [Example 74, (2S,4R)-1-((S)-2-acetamido-3,3-dimethylbutanoyl)-N-(2-((1-((1S,3R)-3-((4-((5-(4-(aminomethyl)-4-methylpiperidin-1-yl)pyrazin-2-yl)thio)-3-chloropyridin-2-yl)amino)cyclobutanecarbonyl)piperidin-4-yl)oxy)-4-(4-methylthiazol-5-yl)benzyl)-4-hydroxypyrrolidine-2-carboxamide]"
69.4,99.3,"Cc1ncsc1-c1ccc(CNC(=O)[C@@H]2C[C@@H](O)CN2C(=O)[C@@H](NC(=O)C2(F)CC2)C(C)(C)C)c(OCCN2CCN(C(=O)C3CCN(c4nccc(Sc5cnc(N6CCC(C)(CN)CC6)cn5)c4Cl)CC3)CC2)c1 [Example 54, (2S,4R)—N-(2-(2-(4-(1-(4-((5-(4-(aminomethyl)-4-methylpiperidin-1-yl)pyrazin-2-yl)thio)-3-chloropyridin-2-yl)piperidine-4-carbonyl)piperazin-1-yl)ethoxy)-4-(4-methylthiazol-5-yl)benzyl)-1-((S)-2-(1-fluorocyclopropane-1-carboxamido)-3,3-dimethylbutanoyl)-4-hydroxypyrrolidine-2-carboxamide]"
65.7,96.8,"Cc1ncsc1-c1ccc(CNC(=O)[C@@H]2C[C@@H](O)CN2C(=O)[C@@H](NC(=O)C2(F)CC2)C(C)(C)C)c(OC2CC3(CCN(C(=O)C4CCN(c5nccc(Sc6cnc(N7CCC(C)(CN)CC7)cn6)c5Cl)CC4)CC3)C2)c1 [Example 57, (2S,4R)—N-(2-((7-(1-(4-((5-(4-(aminomethyl)-4-methylpiperidin-1-yl)pyrazin-2-yl)thio)-3-chloropyridin-2-yl)piperidine-4-carbonyl)-7-azaspiro[3.5]nonan-2-yl)oxy)-4-(4-methylthiazol-5-yl)benzyl)-1-((S)-2-(1-fluorocyclopropane-1-carboxamido)-3,3-dimethylbutanoyl)-4-hydroxypyrrolidine-2-carboxamide]"
32.9,92.6,"Cc1ncsc1-c1ccc(CNC(=O)[C@@H]2C[C@@H](O)CN2C(=O)[C@@H](NC(=O)C2(F)CC2)C(C)(C)C)c(OCCN2CCC(C(=O)N3CCC(Nc4cccc(Sc5cnc(N6CCC(C)(CN)CC6)cn5)c4Cl)CC3)CC2)c1 [Example 51, (2S,4R)—N-(2-(2-(4-(4-((3-((5-(4-(aminomethyl)-4-methylpiperidin-1-yl)pyrazin-2-yl)thio)-2-chlorophenyl)amino)piperidine-1-carbonyl)piperidin-1-yl)ethoxy)-4-(4-methylthiazol-5-yl)benzyl)-1-((S)-2-(1-fluorocyclopropane-1-carboxamido)-3,3-dimethylbutanoyl)-4-hydroxypyrrolidine-2-carboxamide]"
60.0,99.4,"Cc1ncsc1-c1ccc(CNC(=O)[C@@H]2C[C@@H](O)CN2C(=O)[C@@H](NC(=O)C2(F)CC2)C(C)(C)C)c(OC2CCN(C(=O)CC3CCN(c4nccc(Sc5cnc(N6CCC(C)(CN)CC6)cn5)c4Cl)CC3)CC2)c1 [Example 71, (2S,4R)—N-(2-((1-(2-(1-(4-((5-(4-(aminomethyl)-4-methylpiperidin-1-yl)pyrazin-2-yl)thio)-3-chloropyridin-2-yl)piperidin-4-yl)acetyl)piperidin-4-yl)oxy)-4-(4-methylthiazol-5-yl)benzyl)-1-((S)-2-(1-fluorocyclopropane-1-carboxamido)-3,3-dimethylbutanoyl)-4-hydroxypyrrolidine-2-carboxamide]"
